From US20050215625A9, “Combination therapy for anticoagulation” (priority 2003, published 2005)
Where two headings read alike, the source gives them in different places.

Test system: anticoagulation level (International Normalized Ratio)
Conditions: for variation from low to high doses of warfarin / warfarin dose, low to high: across the first 24 measures
Procedure: Adult anticoagulation patients presenting to the practice site were informed of the study, and the opportunity to be a test subject. Subjects were required to complete a study entry data interview, provide informed consent, and present to the clinic once to twice weekly for INR evaluation. The control group and a second group (the algorithm group) of patients were provided warfarin alone as an anticoagulation agent, while the study group patients received warfarin and 100 μg of vitamin K in a single gelatin capsule from a single pharmacy. […] The study received clearance from the St. Mary's Medical Center Institutional Review Board, Galesburg, Ill.
An initial study interview was conducted and identified a patient's sex, age, indication for anticoagulation, and prescription and nonprescription medication usage. Those who were appropriate for study and provided consent were required to present to the clinic for once or twice weekly INR testing.
The control group (N=6) received their warfarin dosed by conventional tablet forms and presented to the office at least weekly for INR labs (more often if dosage changes were required).
The algorithm group (N=6) received their warfarin based upon an algorithm devised by the investigators to standardize the adjustments and the dosing of warfarin in smaller increments than those available in conventional dosages of oral medication (tablets). The algorithm specified dosages of warfarin other than those used by the manufacturer, in order for the prescribing physician to specify smaller incremental dosage changes than those permitted with the standard dosages available.
The purpose of having the algorithm group as a part of the study was to determine if the algorithm played a significant role in reducing nontherapeutic anticoagulation intervals. […] If a dosing adjustment was required due to a nontherapeutic INR, the dose of warfarin would be adjusted in a fixed increment and the time of the next INR set by reducing the interval.
The second theory behind the algorithm is that at the lower warfarin doses, the interval between easily taken amounts is a significant dose change. For example, the increase in dosage between 1 mg and 2 mg daily is a 100 percent dose increase. In comparison, the increase between the 4 mg tab and the 5 mg tab is a 25 percent dose increase. In order to create smaller dosage steps between doses of warfarin, the various available tablets were halved along their scoring lines and the appropriate amount was placed into a gelatin capsule for easy daily dosing. For instance, a dose of 1.75 mg warfarin required one-half of a 2.5 mg tablet and one-half of a 1 mg tab to be placed into a gelatin capsule. A cooperating compounding pharmacist placed the daily doses of warfarin into gelatin capsules for the use of the patients in the algorithm group.
The study group (N=12) received warfarin combined with 100 μg of vitamin K compounded into a gelatin capsule by the compounding pharmacist. The warfarin was dosed by the study algorithm, described above. Patients who randomized to this group received their current dose of warfarin along with the dose of vitamin K in the daily gelatin capsule. And as the INR fluctuated, the dose of warfarin was adjusted by the algorithm.
The combination of warfarin and vitamin K was accomplished by adding fixed amounts of each into an orally dosed form. The doses of warfarin used within the study protocol were (in milligrams): 0.5, 1, 1.25, 1.5, 1.75, 2.0, 2.25, 2.5, 2.75, 3.0, 3.25, 3.5, 3.75, 4.0, 4.5, 5.0, 5.5, 6.0, 6.5, 7.0, 7.5, 8.0, 8.5, 9.0, 9.5, 10, 11, 12, 13, 15.

[1] = algorithm only arm, average dose
[2] = combination capsule group (dosed by algorithm) or standard care group

## CC(=O)CC(c1ccccc1)c1c(O)c2ccccc2oc1=O (centres unmarked) [warfarin alone, 3-(_-acetonylbenzyl)-4-hydroxycoumarin]
[1]
  variation from low to high doses of warfarin: 25.3%
  warfarin dose, low to high: 4.71-6.30 mgs
[2]
  variation from low to high doses of warfarin: 36.9%
  warfarin dose, low to high: 3.50-5.55 mgs
Control and algorithm arms, includes two subjects who had this occur twice
  persons with a dosage change in their anticoagulation after a change in concomitant medical therapy: Eight
Over six months, INR at least weekly, up to 35 INR measurements, combination group N=12 (100 μg vitamin K) vs control and algorithm groups combined, p=0.032
  number of clinically safe anticoagulation levels (INR level between 2.0 and 3.0): 14.83
Over six months, INR at least weekly, combination group N=12 vs control and algorithm groups combined, p=0.048
  number of medically safe anticoagulation levels (INR level between 1.8 and 3.5): 18.42
Over six months, combination group N=12 vs control and algorithm groups combined, p=0.054, not significant
  number of medically unsafe INRs (INR less than 1.5 or greater than 4.9): 22.00
